Columns and labels:
[1] = biological target: T1, Serine/threonine-protein kinase BRSK2 (Homo sapiens) (UniProt Q8IWQ3); test: Inhibition of human truncated BRSK2 expressed in baculovirus assessed as substrate phosphorylation using fluorescence-labelled peptides as substrate at 0.06 uM after 90 mins by microfluidic peptide phosphorylation assay
T1 sequence (whole entry): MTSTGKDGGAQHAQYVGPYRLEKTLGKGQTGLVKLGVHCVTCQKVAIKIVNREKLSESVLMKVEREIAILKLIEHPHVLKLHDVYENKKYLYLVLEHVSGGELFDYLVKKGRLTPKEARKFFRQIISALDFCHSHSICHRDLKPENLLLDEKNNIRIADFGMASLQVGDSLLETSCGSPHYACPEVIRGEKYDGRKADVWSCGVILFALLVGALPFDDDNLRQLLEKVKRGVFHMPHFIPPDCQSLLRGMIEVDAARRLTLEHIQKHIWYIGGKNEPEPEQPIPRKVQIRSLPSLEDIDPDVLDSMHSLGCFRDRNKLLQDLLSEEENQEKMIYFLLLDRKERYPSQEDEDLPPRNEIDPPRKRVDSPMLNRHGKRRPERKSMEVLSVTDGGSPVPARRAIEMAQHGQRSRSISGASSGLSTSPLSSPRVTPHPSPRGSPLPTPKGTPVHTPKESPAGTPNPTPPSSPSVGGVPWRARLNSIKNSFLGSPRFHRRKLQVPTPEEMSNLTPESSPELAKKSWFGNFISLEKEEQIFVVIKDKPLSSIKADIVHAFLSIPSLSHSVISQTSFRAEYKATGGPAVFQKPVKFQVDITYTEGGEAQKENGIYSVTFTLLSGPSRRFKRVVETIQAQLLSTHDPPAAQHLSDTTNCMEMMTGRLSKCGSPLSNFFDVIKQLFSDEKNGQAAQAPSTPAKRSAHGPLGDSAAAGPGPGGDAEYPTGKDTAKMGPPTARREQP

[2] = biological target: Ribosomal protein S6 kinase alpha-3 (Homo sapiens) (UniProt P51812); test: Inhibition of human full length RSK2 expressed in baculovirus assessed as substrate phosphorylation using fluorescence-labelled peptides as substrate at 0.06 uM after 90 mins by microfluidic peptide phosphorylation assay
Ribosomal protein S6 kinase alpha-3 (Homo sapiens), sequence (P51812 whole entry, the tested form may be a part): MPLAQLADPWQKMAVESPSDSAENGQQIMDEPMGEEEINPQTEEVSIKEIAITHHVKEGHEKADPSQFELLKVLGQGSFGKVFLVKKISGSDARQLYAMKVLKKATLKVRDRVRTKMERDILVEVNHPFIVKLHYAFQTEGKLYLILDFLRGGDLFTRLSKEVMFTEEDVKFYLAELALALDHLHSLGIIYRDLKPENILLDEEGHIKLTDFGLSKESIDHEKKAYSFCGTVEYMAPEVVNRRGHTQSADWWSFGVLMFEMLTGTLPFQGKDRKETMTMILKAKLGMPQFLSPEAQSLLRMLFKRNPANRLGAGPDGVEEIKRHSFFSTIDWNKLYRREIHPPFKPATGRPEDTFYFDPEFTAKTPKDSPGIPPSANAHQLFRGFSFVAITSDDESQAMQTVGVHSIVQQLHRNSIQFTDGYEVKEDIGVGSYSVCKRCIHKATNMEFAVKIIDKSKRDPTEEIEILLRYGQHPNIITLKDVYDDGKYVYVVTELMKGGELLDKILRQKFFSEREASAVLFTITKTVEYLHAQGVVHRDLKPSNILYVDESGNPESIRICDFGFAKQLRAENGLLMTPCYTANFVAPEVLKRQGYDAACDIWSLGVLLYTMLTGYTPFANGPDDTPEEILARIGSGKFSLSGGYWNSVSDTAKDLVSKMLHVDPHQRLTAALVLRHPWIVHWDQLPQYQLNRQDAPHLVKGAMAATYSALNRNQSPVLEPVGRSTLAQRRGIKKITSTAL

[3] = biological target: Hepatocyte growth factor receptor (Homo sapiens) (UniProt P08581); test: Inhibition of human MET cytoplasmic domain expressed in baculovirus assessed as substrate phosphorylation using fluorescence-labelled peptides as substrate at 420 uM after 90 mins by microfluidic peptide phosphorylation assay
Hepatocyte growth factor receptor (Homo sapiens), sequence (P08581 whole entry, the tested form may be a part): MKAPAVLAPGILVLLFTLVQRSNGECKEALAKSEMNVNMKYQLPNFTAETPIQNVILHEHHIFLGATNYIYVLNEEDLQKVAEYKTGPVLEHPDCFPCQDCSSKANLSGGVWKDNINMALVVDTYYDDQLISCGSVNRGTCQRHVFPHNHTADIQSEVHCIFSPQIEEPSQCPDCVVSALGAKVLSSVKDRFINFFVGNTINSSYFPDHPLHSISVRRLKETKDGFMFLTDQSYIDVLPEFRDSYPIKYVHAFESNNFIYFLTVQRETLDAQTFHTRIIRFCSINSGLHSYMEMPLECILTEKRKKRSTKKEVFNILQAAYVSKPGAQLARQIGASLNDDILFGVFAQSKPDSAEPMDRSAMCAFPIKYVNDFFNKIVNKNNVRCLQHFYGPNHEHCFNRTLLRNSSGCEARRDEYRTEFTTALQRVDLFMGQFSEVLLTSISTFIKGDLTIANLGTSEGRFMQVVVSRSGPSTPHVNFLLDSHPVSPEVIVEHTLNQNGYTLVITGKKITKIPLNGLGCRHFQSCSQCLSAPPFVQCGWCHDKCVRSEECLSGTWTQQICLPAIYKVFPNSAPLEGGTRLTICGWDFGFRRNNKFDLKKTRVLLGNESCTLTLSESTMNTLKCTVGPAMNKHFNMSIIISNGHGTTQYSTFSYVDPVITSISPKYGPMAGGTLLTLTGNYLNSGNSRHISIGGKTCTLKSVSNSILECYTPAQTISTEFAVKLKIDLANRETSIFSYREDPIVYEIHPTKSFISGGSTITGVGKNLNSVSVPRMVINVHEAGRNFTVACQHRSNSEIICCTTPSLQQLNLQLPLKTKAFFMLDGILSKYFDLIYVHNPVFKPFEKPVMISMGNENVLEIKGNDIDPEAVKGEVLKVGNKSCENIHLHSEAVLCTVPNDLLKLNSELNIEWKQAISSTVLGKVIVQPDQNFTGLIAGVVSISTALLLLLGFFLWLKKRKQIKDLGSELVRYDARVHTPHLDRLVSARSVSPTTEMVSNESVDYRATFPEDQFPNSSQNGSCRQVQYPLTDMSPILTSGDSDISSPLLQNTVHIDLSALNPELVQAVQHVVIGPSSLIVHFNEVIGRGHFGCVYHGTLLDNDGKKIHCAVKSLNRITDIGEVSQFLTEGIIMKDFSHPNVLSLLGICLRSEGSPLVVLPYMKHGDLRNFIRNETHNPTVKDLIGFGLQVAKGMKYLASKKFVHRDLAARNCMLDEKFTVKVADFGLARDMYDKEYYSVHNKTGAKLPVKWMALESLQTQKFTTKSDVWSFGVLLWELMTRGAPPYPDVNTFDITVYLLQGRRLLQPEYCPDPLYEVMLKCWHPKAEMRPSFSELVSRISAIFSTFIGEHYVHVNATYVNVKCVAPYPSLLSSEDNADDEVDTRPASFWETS

[4] = biological target: MAP kinase p38 (Homo sapiens) (UniProt O15264+Q15759+Q16539+P53778); test: Inhibition of human full length p38 beta2 expressed in Escherichia coli cell assessed as substrate phosphorylation using fluorescence-labelled peptides as substrate at 95 uM after 90 mins by microfluidic peptide phosphorylation assay
MAP kinase p38 (Homo sapiens), sequence (O15264 whole entry, looked up, one chain of several): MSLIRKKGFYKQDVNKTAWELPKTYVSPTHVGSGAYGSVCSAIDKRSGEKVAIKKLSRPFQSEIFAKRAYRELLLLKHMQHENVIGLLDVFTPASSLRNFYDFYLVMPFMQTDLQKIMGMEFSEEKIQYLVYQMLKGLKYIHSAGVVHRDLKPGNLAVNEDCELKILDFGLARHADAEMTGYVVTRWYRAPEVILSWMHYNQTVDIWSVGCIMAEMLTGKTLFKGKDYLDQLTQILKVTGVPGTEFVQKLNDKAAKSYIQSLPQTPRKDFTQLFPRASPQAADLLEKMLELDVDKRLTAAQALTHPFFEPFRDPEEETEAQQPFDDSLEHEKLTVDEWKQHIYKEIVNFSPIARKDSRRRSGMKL
MAP kinase p38 (Homo sapiens), sequence (Q15759 whole entry, looked up, one chain of several): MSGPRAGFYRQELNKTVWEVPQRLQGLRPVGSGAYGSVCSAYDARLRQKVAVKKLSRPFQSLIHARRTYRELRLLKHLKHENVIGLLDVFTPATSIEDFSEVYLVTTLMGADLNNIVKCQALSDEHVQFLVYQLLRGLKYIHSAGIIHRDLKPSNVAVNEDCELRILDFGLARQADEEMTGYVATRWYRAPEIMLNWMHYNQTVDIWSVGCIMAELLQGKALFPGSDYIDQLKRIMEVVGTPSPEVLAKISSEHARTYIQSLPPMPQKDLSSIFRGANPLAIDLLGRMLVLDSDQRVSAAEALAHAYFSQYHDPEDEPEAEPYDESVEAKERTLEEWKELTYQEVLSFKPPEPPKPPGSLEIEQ
MAP kinase p38 (Homo sapiens), sequence (Q16539 whole entry, looked up, one chain of several): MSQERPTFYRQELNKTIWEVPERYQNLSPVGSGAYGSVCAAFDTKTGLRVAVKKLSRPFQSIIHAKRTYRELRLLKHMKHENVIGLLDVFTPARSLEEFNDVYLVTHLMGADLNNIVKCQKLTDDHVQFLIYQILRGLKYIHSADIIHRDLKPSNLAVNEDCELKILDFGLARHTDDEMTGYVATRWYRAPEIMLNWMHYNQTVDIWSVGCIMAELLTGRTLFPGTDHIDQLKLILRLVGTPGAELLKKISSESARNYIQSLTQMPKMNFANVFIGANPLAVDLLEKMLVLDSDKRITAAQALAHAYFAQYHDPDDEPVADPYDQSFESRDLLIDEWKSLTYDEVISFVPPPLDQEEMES

[5] = biological target: T2, Mitogen-activated protein kinase 12 (Homo sapiens) (UniProt P53778); test: Inhibition of human full length p38 gamma expressed in Escherichia coli cell assessed as substrate phosphorylation using fluorescence-labelled peptides as substrate at 1000 uM after 90 mins by microfluidic peptide phosphorylation assay
T2 sequence (whole entry): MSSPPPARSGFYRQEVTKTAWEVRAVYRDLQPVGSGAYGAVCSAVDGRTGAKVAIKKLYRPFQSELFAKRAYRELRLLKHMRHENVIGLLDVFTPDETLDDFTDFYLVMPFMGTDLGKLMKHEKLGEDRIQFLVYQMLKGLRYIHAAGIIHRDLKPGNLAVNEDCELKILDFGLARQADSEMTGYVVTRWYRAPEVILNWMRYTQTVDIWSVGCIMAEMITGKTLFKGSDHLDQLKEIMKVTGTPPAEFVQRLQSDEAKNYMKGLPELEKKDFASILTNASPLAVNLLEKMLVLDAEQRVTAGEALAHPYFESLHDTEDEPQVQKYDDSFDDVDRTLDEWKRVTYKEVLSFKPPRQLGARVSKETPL

[6] = biological target: Protein kinase C beta type (Homo sapiens) (UniProt P05771); test: Inhibition of human truncated PKC beta1 expressed in baculovirus assessed as substrate phosphorylation using fluorescence-labelled peptides as substrate at 2 uM after 90 mins by microfluidic peptide phosphorylation assay
Protein kinase C beta type (Homo sapiens), sequence (P05771 2-671 limits assumed): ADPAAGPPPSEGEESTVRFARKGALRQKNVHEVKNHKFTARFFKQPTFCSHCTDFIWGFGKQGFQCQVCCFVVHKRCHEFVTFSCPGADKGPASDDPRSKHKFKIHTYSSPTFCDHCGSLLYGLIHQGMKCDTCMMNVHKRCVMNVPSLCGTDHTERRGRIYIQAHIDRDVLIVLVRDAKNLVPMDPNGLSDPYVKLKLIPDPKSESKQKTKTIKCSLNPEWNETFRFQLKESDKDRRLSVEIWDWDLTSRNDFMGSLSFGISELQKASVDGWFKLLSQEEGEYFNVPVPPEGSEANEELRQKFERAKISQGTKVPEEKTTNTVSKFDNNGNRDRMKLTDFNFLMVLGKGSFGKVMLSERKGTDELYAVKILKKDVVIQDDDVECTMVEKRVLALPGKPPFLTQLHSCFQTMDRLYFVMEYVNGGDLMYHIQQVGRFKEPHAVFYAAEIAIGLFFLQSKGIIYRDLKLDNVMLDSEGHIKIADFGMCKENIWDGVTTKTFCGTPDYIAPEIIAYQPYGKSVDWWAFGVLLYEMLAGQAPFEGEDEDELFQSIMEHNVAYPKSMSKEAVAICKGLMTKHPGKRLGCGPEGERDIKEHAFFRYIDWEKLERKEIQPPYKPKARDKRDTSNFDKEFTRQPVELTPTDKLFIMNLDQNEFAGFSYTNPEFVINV

[7] = biological target: Mitogen-activated protein kinase 1 (Homo sapiens) (UniProt P28482); test: Inhibition of human full length ERK2 expressed in Escherichia coli cell assessed as substrate phosphorylation using fluorescence-labelled peptides as substrate at 2 uM after 90 mins by microfluidic peptide phosphorylation assay
Mitogen-activated protein kinase 1 (Homo sapiens), sequence (P28482 whole entry, the tested form may be a part): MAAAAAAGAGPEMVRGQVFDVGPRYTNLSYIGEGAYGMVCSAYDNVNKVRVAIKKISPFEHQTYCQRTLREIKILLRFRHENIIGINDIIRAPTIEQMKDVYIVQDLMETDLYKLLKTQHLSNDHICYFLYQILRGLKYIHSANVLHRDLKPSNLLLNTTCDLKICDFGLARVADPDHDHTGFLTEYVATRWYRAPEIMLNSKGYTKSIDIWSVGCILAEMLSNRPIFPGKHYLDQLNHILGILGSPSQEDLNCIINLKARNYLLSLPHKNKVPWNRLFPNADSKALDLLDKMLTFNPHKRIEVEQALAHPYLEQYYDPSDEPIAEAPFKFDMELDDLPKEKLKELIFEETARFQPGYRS

[8] = tested on: T3, Receptor-type tyrosine-protein kinase FLT3 (Homo sapiens), P36888 [D835Y]; test: Inhibition of human FLT3 D835Y mutant catalytic domain expressed in baculovirus assessed as substrate phosphorylation using fluorescence-labelled peptides as substrate at […] after 90 mins by microfluidic peptide phosphorylation assay
T3 sequence (whole entry): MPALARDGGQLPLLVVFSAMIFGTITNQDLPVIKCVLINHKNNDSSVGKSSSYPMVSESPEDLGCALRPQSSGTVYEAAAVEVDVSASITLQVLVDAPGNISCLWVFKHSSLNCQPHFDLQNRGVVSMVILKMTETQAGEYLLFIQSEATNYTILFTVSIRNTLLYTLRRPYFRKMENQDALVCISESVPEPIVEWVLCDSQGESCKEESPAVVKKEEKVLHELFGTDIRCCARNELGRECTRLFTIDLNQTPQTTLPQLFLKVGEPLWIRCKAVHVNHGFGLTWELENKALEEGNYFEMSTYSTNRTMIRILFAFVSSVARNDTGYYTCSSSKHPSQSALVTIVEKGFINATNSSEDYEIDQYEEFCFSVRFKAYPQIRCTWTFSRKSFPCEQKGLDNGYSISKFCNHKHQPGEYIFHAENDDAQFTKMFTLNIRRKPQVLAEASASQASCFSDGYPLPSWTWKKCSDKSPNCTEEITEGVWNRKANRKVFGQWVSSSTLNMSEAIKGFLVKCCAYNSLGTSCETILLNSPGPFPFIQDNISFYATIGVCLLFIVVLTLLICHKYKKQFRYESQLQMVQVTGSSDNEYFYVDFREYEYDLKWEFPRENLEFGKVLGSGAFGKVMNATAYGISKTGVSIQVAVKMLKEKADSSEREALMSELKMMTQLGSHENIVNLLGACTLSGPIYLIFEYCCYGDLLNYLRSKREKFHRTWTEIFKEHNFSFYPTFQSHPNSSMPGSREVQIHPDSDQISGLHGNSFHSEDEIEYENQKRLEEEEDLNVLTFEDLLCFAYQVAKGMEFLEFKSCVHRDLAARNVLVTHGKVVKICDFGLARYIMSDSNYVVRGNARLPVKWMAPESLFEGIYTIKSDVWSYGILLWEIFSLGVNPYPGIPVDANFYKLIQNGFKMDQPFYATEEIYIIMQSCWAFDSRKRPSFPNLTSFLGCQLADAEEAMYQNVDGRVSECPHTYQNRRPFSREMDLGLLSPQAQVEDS

[9] = biological target: Fibroblast growth factor receptor 2 (Homo sapiens) (UniProt P21802); details: 0.1 uM
Fibroblast growth factor receptor 2 (Homo sapiens), sequence (P21802 22-821 limits assumed): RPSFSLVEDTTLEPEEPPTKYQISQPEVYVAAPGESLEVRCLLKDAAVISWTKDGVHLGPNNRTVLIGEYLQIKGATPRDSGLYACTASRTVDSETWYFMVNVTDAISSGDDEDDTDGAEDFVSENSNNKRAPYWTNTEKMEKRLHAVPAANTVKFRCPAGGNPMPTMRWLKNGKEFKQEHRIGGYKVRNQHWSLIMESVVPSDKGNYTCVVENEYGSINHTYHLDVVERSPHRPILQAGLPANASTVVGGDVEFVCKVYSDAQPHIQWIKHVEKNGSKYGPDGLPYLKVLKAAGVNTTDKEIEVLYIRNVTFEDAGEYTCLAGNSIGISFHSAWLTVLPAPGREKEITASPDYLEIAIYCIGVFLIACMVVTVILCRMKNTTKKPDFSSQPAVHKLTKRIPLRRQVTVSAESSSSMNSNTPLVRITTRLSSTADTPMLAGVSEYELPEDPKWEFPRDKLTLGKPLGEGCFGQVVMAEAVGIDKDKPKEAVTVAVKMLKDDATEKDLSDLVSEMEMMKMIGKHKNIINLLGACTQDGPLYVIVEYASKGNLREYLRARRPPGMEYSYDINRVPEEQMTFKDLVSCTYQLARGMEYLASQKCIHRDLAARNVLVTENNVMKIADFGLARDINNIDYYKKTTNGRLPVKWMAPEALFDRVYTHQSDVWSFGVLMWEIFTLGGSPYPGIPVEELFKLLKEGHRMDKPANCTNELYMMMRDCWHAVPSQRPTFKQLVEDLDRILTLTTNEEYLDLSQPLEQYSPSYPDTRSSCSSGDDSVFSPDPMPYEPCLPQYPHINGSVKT
Description: Inhibition of human FGFR2 catalytic domain expressed in baculovirus assessed as substrate phosphorylation using fluorescence-labelled peptides as substrate at 0.1 uM after 90 mins by microfluidic peptide phosphorylation assay

NC1(Cc2ccc(Cl)cc2)CCN(c2ncnc3[nH]ccc23)CC1
inhibition [1]: 0%
inhibition [2]: 0.5%

c1nc(N2CCOCC2)c2nc[nH]c2n1
inhibition [3]: 23%

NCCc1ccc(-c2ncnc3[nH]cnc23)cc1
inhibition [4]: 11%

c1cnc2[nH]ccc2c1
inhibition [5]: 64%

NC1CCN(c2ncnc3[nH]ccc23)CC1
inhibition [6]: 16.5%
inhibition [7]: 2.5%

COC(=O)c1cnc(Nc2cnc(C#N)cn2)cc1NCC1CCNCC1
inhibition [8]: 63%

C[C@H](CN(C)C)Oc1nc(Nc2cc3cccc(Cl)c3cn2)cnc1C#N
inhibition [9]: 0%

— ChEMBL document CHEMBL3132769, “Fragment growing to retain or alter the selectivity of anchored kinase hinge-binding fragments” (Medchemcomm, 2014)
